From US11066396B2 (priority 2016, dated 2021)

Legend:
HDAC1 = HDAC1 (Homo sapiens (Human), UniProt Q13547); conditions: read-out: HDAC1 IC50
HDAC5 = HDAC5 (Homo sapiens (Human), UniProt Q9UQL6); conditions: read-out: HDAC5 IC50
HDAC8 = HDAC8 (Homo sapiens (Human), UniProt Q9BY41); conditions: read-out: HDAC8 IC50
HDAC8, sequence (Q9BY41 whole entry): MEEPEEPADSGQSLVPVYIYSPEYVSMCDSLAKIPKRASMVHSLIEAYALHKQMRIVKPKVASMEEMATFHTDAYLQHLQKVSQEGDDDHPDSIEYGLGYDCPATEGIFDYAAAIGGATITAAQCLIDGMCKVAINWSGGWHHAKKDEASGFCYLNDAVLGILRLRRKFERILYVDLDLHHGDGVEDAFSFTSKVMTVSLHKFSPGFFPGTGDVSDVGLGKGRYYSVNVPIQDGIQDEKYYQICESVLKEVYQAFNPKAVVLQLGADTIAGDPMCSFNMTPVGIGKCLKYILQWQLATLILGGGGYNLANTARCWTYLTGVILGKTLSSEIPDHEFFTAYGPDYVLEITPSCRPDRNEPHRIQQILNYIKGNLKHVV

HDAC1, sequence (Q13547 whole entry): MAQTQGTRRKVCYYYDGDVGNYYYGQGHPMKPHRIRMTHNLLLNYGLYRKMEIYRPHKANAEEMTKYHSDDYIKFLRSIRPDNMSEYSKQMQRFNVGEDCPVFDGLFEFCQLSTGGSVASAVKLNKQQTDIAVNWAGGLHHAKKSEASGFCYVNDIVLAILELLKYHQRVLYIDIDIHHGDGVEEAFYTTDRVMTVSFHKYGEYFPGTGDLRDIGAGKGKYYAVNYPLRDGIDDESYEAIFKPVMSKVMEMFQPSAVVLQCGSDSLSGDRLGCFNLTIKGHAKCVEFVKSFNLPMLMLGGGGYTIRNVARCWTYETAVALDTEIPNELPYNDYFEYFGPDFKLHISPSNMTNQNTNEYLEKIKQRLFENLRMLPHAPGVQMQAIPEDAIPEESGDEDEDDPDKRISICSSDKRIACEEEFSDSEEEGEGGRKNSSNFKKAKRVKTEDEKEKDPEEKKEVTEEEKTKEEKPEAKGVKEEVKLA
HDAC5, sequence (Q9UQL6 656-1122): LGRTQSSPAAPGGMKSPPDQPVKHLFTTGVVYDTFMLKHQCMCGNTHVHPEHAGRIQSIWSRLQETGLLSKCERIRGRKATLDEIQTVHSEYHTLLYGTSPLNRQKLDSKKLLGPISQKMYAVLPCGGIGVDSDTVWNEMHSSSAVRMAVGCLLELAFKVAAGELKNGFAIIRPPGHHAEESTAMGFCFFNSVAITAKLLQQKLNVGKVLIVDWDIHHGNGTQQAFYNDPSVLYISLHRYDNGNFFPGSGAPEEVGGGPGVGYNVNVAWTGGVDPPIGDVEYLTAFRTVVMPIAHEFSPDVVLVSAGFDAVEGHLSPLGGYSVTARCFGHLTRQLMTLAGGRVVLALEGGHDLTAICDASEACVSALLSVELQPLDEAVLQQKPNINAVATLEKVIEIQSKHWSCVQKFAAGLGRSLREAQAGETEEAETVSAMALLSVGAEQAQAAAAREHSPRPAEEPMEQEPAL

SMILES: CN(C(=O)[C@@H]1CCC(=O)N1c1ccc(-c2noc(C(F)(F)F)n2)c(F)c1)C(C)(C)C [Example 340, N-tert-butyl-1-{3-fluoro-4-[5-(trifluoromethyl)-1,2,4-oxadiazol-3-yl]phenyl}-N-methyl-5-oxo-L-prolinamide]
- IC50 (HDAC1): 31000 nM
- IC50 (HDAC5): 1800 nM
- IC50 (HDAC8): 27000 nM

SMILES: O=C1COC[C@@H](c2ccccc2)N1c1ccc(-c2noc(C(F)(F)F)n2)c(F)c1 [Example 2, (R)-4-(3-Fluoro-4-(5-(trifluoromethyl)-1,2,4-oxadiazol-3-yl)phenyl)-5-phenylmorpholin-3-one]
- IC50 (HDAC1): 480 nM
- IC50 (HDAC5): 18 nM
- IC50 (HDAC8): 4600 nM

SMILES: Cc1noc([C@@H]2CCC(=O)N2c2ccc(-c3noc(C(F)(F)F)n3)c(F)c2F)n1 [Example 12, (S)-1-(2,3-Difluoro-4-(5-(trifluoromethyl)-1,2,4-oxadiazol-3-yl)phenyl)-5-(3-methyl-1,2,4-oxadiazol-5-yl)pyrrolidin-2-one]
- IC50 (HDAC1): 2000 nM
- IC50 (HDAC5): 11 nM
- IC50 (HDAC8): 6000 nM

SMILES: CC(C)(C)OC(=O)N1C[C@@H](c2cc(F)cc(F)c2)N(c2ccc(-c3noc(C(F)(F)F)n3)cn2)C(=O)C1C1CCOCC1 (stereo partly drawn) [Example 127, tert-butyl (5R)-5-(3,5-difluorophenyl)-3-oxo-2-(tetrahydro-2H-pyran-4-yl)-4-(5-(5-(trifluoromethyl)-1,2,4-oxadiazol-3-yl)pyridin-2-yl)piperazine-1-carboxylate]
- IC50 (HDAC1): 7300 nM
- IC50 (HDAC5): 360 nM
- IC50 (HDAC8): > 45000 nM

SMILES: O=C(C1CCS(=O)(=O)CC1)N(Cc1ccc(-c2noc(C(F)(F)F)n2)cn1)c1ccccc1C(F)(F)F [Example 201, 1,1-dioxo-N-({5-[5-(trifluoromethyl)-1,2,4-oxadiazol-3-yl]pyridin-2-yl}methyl)-N-[2-(trifluoromethyl)phenyl]-llambda~6~-thiane-4-carboxamide]
- IC50 (HDAC1): 4000 nM
- IC50 (HDAC5): 1400 nM
- IC50 (HDAC8): 9200 nM

SMILES: CC(Oc1cc(-c2noc(C(F)(F)F)n2)ccn1)c1nc2ccccc2[nH]1 (racemic) [Example 203, 2-[1-({4-[5-(trifluoromethyl)-1,2,4-oxadiazol-3-yl]pyridin-2-yl}oxy)ethyl]-1H-benzimidazole]
- IC50 (HDAC1): 130 nM
- IC50 (HDAC5): 130 nM
- IC50 (HDAC8): 900 nM

SMILES: Cc1cncnc1OCc1ccc(-c2noc(C(F)(F)F)n2)c(F)c1 [Example 244, 4-({3-fluoro-4-[5-(trifluoromethyl)-1,2,4-oxadiazol-3-yl]phenyl}methoxy)-5-methylpyrimidine]
- IC50 (HDAC1): 3300 nM
- IC50 (HDAC5): 130 nM
- IC50 (HDAC8): 1900 nM

SMILES: O=C(NC(Cc1ccc(-c2noc(C(F)(F)F)n2)cn1)c1cccc(C(F)(F)F)c1)C1CCOCC1 (racemic) [Example 483, N-(2-{5-[5-(trifluoromethyl)-1,2,4-oxadiazol-3-yl]pyridin-2-yl}-1-[3-(trifluoromethyl)phenyl]ethyl)oxane-4-carboxamide]
- IC50 (HDAC1): 630 nM
- IC50 (HDAC5): 510 nM
- IC50 (HDAC8): 6100 nM

SMILES: COC(=O)N1CCC(C(=O)N(Cc2ccc(-c3noc(C(F)(F)F)n3)cn2)c2cccc(C(F)(F)F)c2)CC1 [Example 198, methyl 4-{({5-[5-(trifluoromethyl)-1,2,4-oxadiazol-3-yl]pyridin-2-yl}methyl)[3-(trifluoromethyl)phenyl]carbamoyl}piperidine-1-carboxylate]
- IC50 (HDAC1): 480 nM
- IC50 (HDAC5): 650 nM
- IC50 (HDAC8): 1300 nM

SMILES: O=C(OCCOCCCl)[C@@H]1CCC(=O)N1c1ccc(-c2noc(C(F)(F)F)n2)c(F)c1 [Example 197, 2-(2-chloroethoxy)ethyl 1-{3-fluoro-4-[5-(trifluoromethyl)-1,2,4-oxadiazol-3-yl]phenyl}-5-oxo-L-prolinate]
- IC50 (HDAC1): 1200 nM
- IC50 (HDAC5): 50 nM
- IC50 (HDAC8): 110 nM

SMILES: CCc1nnc([C@@H]2CCC(=O)N2c2cc(F)c(-c3noc(C(F)(F)F)n3)cc2F)o1 [Example 105, (S)-1-(2,5-difluoro-4-(5-(trifluoromethyl)-1,2,4-oxadiazol-3-yl)phenyl)-5-(5-ethyl-1,3,4-oxadiazol-2-yl)pyrrolidin-2-one]
- IC50 (HDAC1): 710 nM
- IC50 (HDAC5): 18 nM
- IC50 (HDAC8): 6600 nM

SMILES: O=C(C1CCS(=O)(=O)CC1)N(Cc1ccc(-c2noc(C(F)(F)F)n2)cn1)c1cccc(F)c1 [Example 55, N-(3-fluorophenyl)-N-((5-(5-(trifluoromethyl)-1,2,4-oxadiazol-3-yl)pyridin-2-yl)methyl)tetrahydro-2H-thiopyran-4-carboxamide 1,1-dioxide]
- IC50 (HDAC1): 250 nM
- IC50 (HDAC5): 1100 nM
- IC50 (HDAC8): 2300 nM
